The source of these data is ChEMBL document CHEMBL1141354, “Isolation and structures of erylosides from the Carribean sponge Erylus goffrilleri” (J Nat Prod, 2007).

The subject of this assay is Ehrlich. As to the kind of experiment: Cytotoxicity against albino mouse Ehrlich carcinoma cells after 1 hr. In kind it is functional, cell-based.
Compound `CC(=O)N[C@H]1[C@H](O[C@H]2[C@H](O[C@H]3CC[C@]4(C)C5=C(CC[C@H]4C3(C)C)[C@]3(C(=O)O)CCC([C@H](C)CCC(C)(OC(C)=O)C(C)C)[C@@]3(C)CC5)O[C@H](CO)[C@H](O)[C@@H]2O)O[C@H](CO)[C@@H](O)[C@@H]1O` (stereo partly specified) [ERYLOSIDE F6] registered an IC50 of 20 µM.
In turn, `C[C@H](CCC(C)(O)C(C)(C)C)C1CC[C@@]2(C(=O)O)C3=C(CC[C@]12C)[C@@]1(C)CC[C@H](O[C@@H]2O[C@H](CO)[C@H](O)[C@H](O[C@@H]4O[C@H](CO)[C@@H](O)[C@H](O)[C@H]4O)[C@H]2O)C(C)(C)[C@@H]1CC3` (stereo partly specified) [ERYLOSIDE F7] yielded an IC50 of 20 µM.
`C[C@H](CCC(C)(O)C(C)(C)C)C1CC[C@@]2(C(=O)O)C3=C(CC[C@]12C)[C@@]1(C)CC[C@H](O[C@@H]2O[C@H](CO)[C@H](O)[C@H](O)[C@H]2O)C(C)(C)[C@@H]1CC3` (stereo partly specified) [ERYLOSIDE R]: the IC50 came out at 20 µM.
Compound `CC(=O)OC(C)(CC[C@@H](C)C1CC[C@@]2(C(=O)O)C3=C(CC[C@]12C)[C@@]1(C)CC[C@H](O[C@@H]2O[C@H](CO)[C@H](O)[C@H](O)[C@H]2O)C(C)(C)[C@@H]1CC3)C(C)C` (stereo partly specified) [ERYLOSIDE S] came in with an IC50 of 20 µM.
`C[C@H](CCC(C)(O)C(C)(C)C)C1CC[C@]23C(=O)O[C@]4(CC[C@]12C)C3=CC[C@H]1C(C)(C)[C@@H](O[C@@H]2O[C@H](CO)[C@H](O)[C@H](O)[C@H]2O)CC[C@@]14C` (stereo partly specified) [ERYLOSIDE T]: the IC50 stood at 20 µM.
As for `C[C@H](CCC(C)(O)C(C)(C)C)C1CC[C@@]2(C(=O)O)C3=C(CC[C@]12C)[C@@]1(C)CC[C@H](O[C@@H]2OC[C@H](O)[C@H](O[C@@H]4OC[C@@H](O)[C@H](O)[C@H]4O)[C@H]2O[C@@H]2O[C@H](CO)[C@H](O)[C@H](O)[C@H]2O)C(C)(C)[C@@H]1CC3` (stereo partly specified) [ERYLOSIDE V], the figure is 20 µM.

The IC50 is the concentration that inhibits the measured activity by half. Low values mean greater potency in that assay, high ones weaker potency in that assay.
